# Where a SMILES comes first, the peptide text is derived from it. Bridges are numbered along the chain shown (N, C = ends). Where no end group is shown, it is not given here. The star is where a group is joined. 5FAM = O=C1OC2(c3ccc(O)cc3Oc3cc(O)ccc32)c2ccc(C(=O)*)cc21
# T1: CRIP1 (Homo sapiens, UniProt P50238)
# T1 construct: enterokinase cleavage site and vector linker residues (N); made in house; host or cells: E. coli (pHAT10-CRIP1, IPTG induction)
# T1 sequence (P50238 1-77): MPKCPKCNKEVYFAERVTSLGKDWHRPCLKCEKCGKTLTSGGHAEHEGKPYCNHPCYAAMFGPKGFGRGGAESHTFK
# T2: Cysteine-rich intestinal protein 1 (CRIP1), purified protein coated on plates for the peptide binding assays (human, UniProt P50238 1-77)
# T2 construct: Cysteine-rich intestinal protein 1 (CRIP1), human; coding region of the cDNA, 77 amino acids; also called CRIP1 protein; source: bacteria (pHAT10-CRIP1, IPTG induced), purified (TALON CellThru resin)
# T2 sequence (looked up): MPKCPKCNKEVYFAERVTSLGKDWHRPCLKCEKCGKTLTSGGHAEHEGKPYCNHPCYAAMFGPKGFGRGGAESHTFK
# Target: T1, CRIP1
# Assay: ELISA of individual phage clones binding to immobilized CRIP1
# Conditions: purified chimeric CRIP1 not reacted with enterokinase
# Excerpt: To select clones for further analysis, we used ELISA to determine the relative binding affinities of selected individual phage clones to purified CRIP1 (see Methods and Figure S3). For these studies the purified chimeric CRIP1 was not reacted with enterokinase.
# Supplementary file pcbi.1000138.s003.tif: Figure S3 Relative estimates of peptide affinity for CRIP1. Phage binding against immobilized CRIP-1. (0.38 MB TIF) Click here for additional data file.
row,Molecule,relative binding affinity of phage clone
1,CC[C@H](C)[C@@H]1NC(=O)[C@@H]2CCCN2C(=O)[C@H](CC(=O)O)NC(=O)[C@H](Cc2ccc(O)cc2)NC(=O)[C@@H](N)CSSC[C@@H](C(=O)NCC(=O)NCC(=O)NCC(=O)N[C@@H](CO)C(=O)N[C@@H](CCCCNC(=O)c2ccc3c(c2)C(=O)OC32c3ccc(O)cc3Oc3cc(O)ccc32)C(N)=O)NC(=O)[C@H]([C@@H](C)O)NC(=O)[C@H](CCCNC(=N)N)NC(=O)[C@H](Cc2c[nH]c3ccccc23)NC1=O [B5] (H-CYDPIWRTCGGGSK(5FAM)-NH2; disulfide 1-9; N-terminus assumed),higher relative affinity
2,"TPRQSPI (disulfide) [C5, C7C phage display peptide TPRQSPI]",lower binding affinity
3,CC(C)C[C@@H]1NC(=O)[C@@H](N)CSSC[C@@H](C(=O)NCC(=O)NCC(=O)NCC(=O)N[C@@H](CO)C(=O)N[C@@H](CCCCN)C(N)=O)NC(=O)[C@H](CO)NC(=O)[C@H](CCCNC(=N)N)NC(=O)[C@H](Cc2c[nH]cn2)NC(=O)[C@H](CC(N)=O)NC(=O)[C@H](CC(=O)O)NC(=O)[C@H](CCCCN)NC1=O [A1] (H-CLKDNHRSCGGGSK-NH2; disulfide 1-9; N-terminus assumed),higher relative affinity

# Target: T2, Cysteine-rich intestinal protein 1 …
# Assay: saturation binding of FITC-labelled peptide to protein-coated plates (fluorescence read-out); data not shown; 'similar assays' to the saturation binding of FITC-A1M on coated CRIP1; apparent Kd
# Conditions: both partners purified
row,Molecule,Kd [µM]
1,"H-CLKDNHRSCGGGSK-NH2 (disulfide 1-9 (inferred); not fully specified (residue 14); printed as NH_2_-C-L-K-D-N-H-R-S-C-G-G-G-S-K-(FITC)-CONH_2_, insert of phage clone A1 (C7C library) followed by the phage spacer Gly-Gly-Gly-Ser and a C-terminal Lys for labelling; also called FITC-A1; parent A1 peptide; source: synthetic peptide (Fmoc chemistry, HPLC purified, cyclised by oxidation in DMSO)) [FITC-cyclic-A1 peptide]",34.4
2,"CYDPIWRTCGGGSK-NH2 (disulfide 1-9 (inferred); not fully specified (residue 14); printed as C-Y-D-P-I-W-R-T-C-G-G-G-S-K-(FITC)-CONH_2_, insert of phage clone B5 (C7C library) followed by the phage spacer Gly-Gly-Gly-Ser and a C-terminal Lys for labelling; also called FITC-B5; source: synthetic peptide (Fmoc chemistry, HPLC purified, cyclised by oxidation in DMSO)) [FITC-cyclic-B5 peptide]",62.5

# Target: T2, Cysteine-rich intestinal protein 1 …
# Assay: saturation binding of FITC-labelled peptide to protein-coated plates (fluorescence read-out); CRIP1 coated on 96-well plates (100 µg/ml in PBS, overnight 4°C), blocked with 0.5% BSA in TBS; FITC peptide 50 nM to 100 µM, 1 h at 37°C; non-specific binding with 1 mM unlabeled peptide; apparent Kd by non-linear regression
# Conditions: both partners purified
row,Molecule,Kd [µM]
1,"H-CLDGGGKGCGGGSK-NH2 (disulfide 1-9 (inferred); not fully specified (residue 14); printed as NH_2_-C-L-D-G-G-G-K-G-C-G-G-G-S-K-(FITC)-CONH_2_, also called FITC-A1M; modified A1; source: synthetic peptide (Fmoc chemistry, HPLC purified, cyclised by oxidation in DMSO)) [FITC-cyclic-A1M peptide]",2.6

# Target: T2, Cysteine-rich intestinal protein 1 …
# Assay: competitive binding on protein-coated plates (fluorescence read-out); CRIP1 coated on 96-well plates (100 µg/ml in PBS, overnight 4°C); 10 µM FITC-A1M held constant, unlabeled A1 or A1M 0 to 300 µM, 1 h at 37°C; one binding site model
# Conditions: both partners purified
Molecule,IC50 [µM],Ki [µM]
"CLKDNHRSCGGGSK (disulfide 1-9 (inferred), also called original A1 peptide; source: synthetic peptide) [unlabeled A1 peptide]",8.8,–
"CLDGGGKGCGGGSK (disulfide 1-9 (inferred), source: synthetic peptide) [unlabeled A1M peptide]",0.32,0.067

# Target: T1, CRIP1
# Assay: Phage display panning (Ph.D.-C7C library), frequency of enriched sequences
# Type: binding
# Conditions: 4 rounds of panning against enterokinase-truncated CRIP1, 29 phage inserts sequenced
# Procedure: In order to generate CRIP1 protein that was as similar as possible to endogenous CRIP1, enterokinase cleavage was performed on purified CRIP1. Uncleaved contaminating HIS-tagged CRIP1 as well as HIS-tagged peptides were removed by re-running the digest over the CellThru resin and retaining the flow thru. […] After four rounds of positive selection against enterokinase-truncated CRIP1, 29 phage DNA inserts were sequenced using a 96 gIII primer (5′-^HOCCC TCA TAG TTA GCG TAA CG-3′). Sequencing verified that 18 of the 29 phagotopes were from the cysteine-constrained phage library, Table 1. Many of the peptide sequences contained similar motifs and six sequences occurred in more than one phagotope. The peptides A1 and C5 were identified four times, C1 three times, and A9, B1, and B5 twice. However, even accounting for conserved amino acid substitutions, no clear motif could be identified.
# CRIP1 was digested with enterokinase (Roche Diagnostics, Inc.) to remove the His tag and then was used as bait for 4 rounds of panning with the Ph.D.-C7C Phage Display Peptide Library (New England Biolabs). The nucleotide sequence of the gene III insert was determined by sequencing the phage, and the amino acid sequence of the insert was deduced from the nucleotide sequence, shown in Table 1.
row,Molecule,Frequency (number of phage clones with the sequence)
1,"APYNTLA (disulfide (positions not given here)) [A6, C7C phage display peptide APYNTLA]",1
2,"SVPINDS (disulfide) [A3, C7C phage display peptide SVPINDS]",1
3,"HANFLHM (disulfide) [C2, C7C phage display peptide HANFLHM]",1
4,"SLNTRSQ (disulfide (positions not given here)) [C9, C7C phage display peptide SLNTRSQ]",1
5,"RTTGAQT (disulfide (positions not given here)) [B4, C7C phage display peptide RTTGAQT]",1
6,"DHRQGSS (disulfide (positions not given here)) [A5, C7C phage display peptide DHRQGSS]",1
7,"YDPIWRT (disulfide (positions not given here)) [B2, C7C phage display peptide YDPIWRT]",1
8,"LPAYSTY (disulfide (positions not given here)) [B9, C7C phage display peptide LPAYSTY]",1
9,"FSTNMKT (disulfide (positions not given here)) [B3, C7C phage display peptide FSTNMKT]",1
10,"RDSSAHQ (disulfide (positions not given here)) [B10, C7C phage display peptide RDSSAHQ]",1
11,"PLFKGMS (disulfide (positions not given here)) [B7, C7C phage display peptide PLFKGMS]",1
12,"SPHIIAS (disulfide (positions not given here)) [A8, C7C phage display peptide SPHIIAS]",1

# Reference: article PMC2453235, “Identification and Rational Redesign of Peptide Ligands to CRIP1, A Novel Biomarker for Cancers” (PLoS Computational Biology, 2008)
